Measurements: publication PMC10150354, “Linearization of the Brevicidine and Laterocidine Lipopeptides Yields Analogues That Retain Full Antibacterial Activity” (Journal of Medicinal Chemistry, 2023)
≈ marks a conversion by molar mass, not a printed value. Where a SMILES comes first, the peptide text is derived from it. [ ]: non-standard residue; d: D form. The star is where a group is joined. ξ: configuration not given here. Octanoyl(7-Me) = CC(C)CCCCCC(=O)*; Hexanoyl(4ξ-Me) = CCC(C)CCC(=O)*; dOrn = NCCC[C@@H](N)C(=O)O; Orn = NCCC[C@H](N)C(=O)O; Dap = NC[C@H](N)C(=O)O; OAll = C=CCO*

Assays:
[1] = tested on: E. coli (MCR-1); type: cell-based, Escherichia coli; settings: microbroth dilution per CLSI, MHB, 18 h at 37 °C, visual inspection, three technical replicates, E. coli 25922 carrying mcr-1
Description: (§1) Linear laterocidine (LL-OH, 4) and linear brevicidine (LB-OH, 5) were first synthesized by Fmoc SPPS, starting from 2-chlorotrityl (2-CT) chloride resin. The antibacterial activity of these peptides was then compared to brevicidine (1) and laterocidine (2) using minimum inhibitory concentration (MIC)/microbroth dilution assays (Table 1). The MICs of all peptides were determined against a panel of Gram-negative and Gram-positive ESKAPE pathogens. Additionally, a strain of E. coli carrying the mcr-1 gene was included in the panel. The mcr-1 gene is a transferrable plasmid that confers resistance against colistin, a last-resort antibiotic for Gram-negative infections, by reducing the overall negative charge of lipopolysaccharide (LPS) through modification of lipid A with phosphoethanolamine. The propensity for cationic antibiotics to bind to the cell membrane is therefore reduced. This gene has been observed in more than 27 bacterial species over six continents.[26] The spread of the mcr-1 gene could render colistin ineffectual; therefore, novel antibacterials are urgently required to overcome this form of resistance.
(§2) All minimum inhibitory concentrations (MICs) were determined according to Clinical and Laboratory Standards Institute (CLSI) guidelines. Blood agar plates were inoculated with glycerol stocks of E. coli ATCC 25922, K. pneumoniae ATCC 13883, A. baumannii ATCC 17961, P. aeruginosa PAO1, and S. aureus USA300. The inoculated agar plates were then incubated for 16 h at 37 °C. Individually grown colonies were subsequently used to inoculate 5 mL aliquots of TSB that were then incubated at 37 °C with shaking at 220 rpm. E. coli 25922 MCR-1 glycerol stock was used to inoculate 5 mL of TSB supplemented with kanamycin that was then incubated for 16 h at 37 °C with shaking at 220 rpm. The next day the culture was diluted 100-fold in TSB supplemented with kanamycin and incubated at 37 °C with shaking at 220 rpm. In parallel, the lipopeptide antibiotics DMSO stocks to be assessed were serially diluted with MHB in polypropylene 96-well plates (50 μL in each well). Colistin sulfate stocks were dissolved in water before being diluted with MHB. Aliquots of the inoculated TSB were incubated until an OD600 of around 0.5 was reached. The bacterial suspensions were then diluted with MHB (2 × 10^5 CFU/mL) and added to the microplates containing the test compounds (50 μL to each well). The well plates were sealed with an adhesive membrane and after 18 h of incubation at 37 °C with shaking at 600 rpm, the wells were visually inspected for bacterial growth. MIC values reported are based on three technical replicates and defined as the lowest concentration of the compound that prevented visible growth of bacteria.

[2] = tested on: E. coli ATCC 25922; type: cell-based, Escherichia coli; settings: for Antibacterial activity (MIC) E. coli ATCC 25922: microbroth dilution per CLSI, MHB, 18 h at 37 °C, visual inspection, three technical replicates; for MIC (µg/mL) against E. coli (ATCC 25922): (Supplement 2)
Description: as §1, §2

[3] = tested on: K. pneumoniae ATCC 13883; type: cell-based, Klebsiella pneumoniae; settings: microbroth dilution per CLSI, MHB, 18 h at 37 °C, visual inspection, three technical replicates
Description: as §1, §2

[4] = tested on: A. baumannii ATCC 17961; type: cell-based, Acinetobacter baumannii; settings: microbroth dilution per CLSI, MHB, 18 h at 37 °C, visual inspection, three technical replicates
Description: as §1, §2

[5] = tested on: P. aeruginosa PAO1; type: cell-based, Pseudomonas aeruginosa; settings: microbroth dilution per CLSI, MHB, 18 h at 37 °C, visual inspection, three technical replicates
Description: as §1, §2

[6] = tested on: S. aureus USA300; type: cell-based, Staphylococcus aureus; settings: microbroth dilution per CLSI, MHB, 18 h at 37 °C, visual inspection, three technical replicates
Description: as §1, §2

Structure (SMILES) | Antibacterial activity (MIC) E. coli (MCR-1) [1] | Antibacterial activity (MIC) E. coli ATCC 25922 [2] | Antibacterial activity (MIC) K. pneumoniae ATCC 13883 [3] | Antibacterial activity (MIC) A. baumannii ATCC 17961 [4] | Antibacterial activity (MIC) P. aeruginosa PAO1 [5] | Antibacterial activity (MIC) S. aureus USA300 [6] | MIC (µg/mL) against E. coli (ATCC 25922) [2]
CC[C@H](C)[C@H](NC(=O)[C@@H](NC(=O)[C@H](Cc1c[nH]c2ccccc12)NC(=O)[C@@H](CCCN)NC(=O)CNC(=O)[C@H](CCCN)NC(=O)[C@@H](CCCN)NC(=O)[C@@H](Cc1c[nH]c2ccccc12)NC(=O)[C@@H](Cc1ccc(O)cc1)NC(=O)[C@@H](CO)NC(=O)CCCCCC(C)C)[C@@H](C)O)C(=O)N[C@@H](C)C(=O)NCC(=O)NCC(N)=O [LL(Ala11)-NH2 (39)] ({Octanoyl(7-Me)}-[dS][dY][dW][dOrn][Orn]G[dOrn]WTIAGG-NH2) | 8 µg/mL | 8 µg/mL | 8 µg/mL | 8 µg/mL | 4 µg/mL | >32 µg/mL | –
CC[C@H](C)[C@H](NC(=O)[C@@H](NC(=O)[C@H](Cc1c[nH]c2ccccc12)NC(=O)[C@@H](CCCN)NC(=O)CNC(=O)[C@H](CCCN)NC(=O)[C@@H](CCCN)NC(=O)[C@@H](Cc1c[nH]c2ccccc12)NC(=O)[C@@H](Cc1ccc(O)cc1)NC(=O)[C@@H](C)NC(=O)CCCCCC(C)C)[C@@H](C)O)C(=O)N[C@@H](CC(N)=O)C(=O)NCC(=O)NCC(N)=O [LL(D-Ala1)-NH2 (29)] ({Octanoyl(7-Me)}-[dA][dY][dW][dOrn][Orn]G[dOrn]WTINGG-NH2) | 8 µg/mL | 8 µg/mL | >32 µg/mL | 32 µg/mL | 8 µg/mL | >32 µg/mL | –
CCC(C)CCC(=O)N[C@H](CC(N)=O)C(=O)N[C@H](Cc1ccc(O)cc1)C(=O)N[C@H](Cc1c[nH]c2ccccc12)C(=O)N[C@H](C)C(=O)N[C@@H](CCCN)C(=O)NCC(=O)N[C@H](CCCN)C(=O)N[C@@H](Cc1c[nH]c2ccccc12)C(=O)N[C@H](C(=O)N[C@H](C(=O)NCC(=O)N[C@@H](CO)C(N)=O)[C@@H](C)CC)[C@@H](C)O (stereo partly drawn) [LB(D-Ala4)-NH2 (20)] ({Hexanoyl(4ξ-Me)}-[dN][dY][dW][dA][Orn]G[dOrn]WTIGS-NH2) | >32 µg/mL | >32 µg/mL | >32 µg/mL | 32 µg/mL | 32 µg/mL | >32 µg/mL | –
CC[C@H](C)[C@H](NC(=O)[C@H](CCSC)NC(=O)[C@H](Cc1c[nH]c2ccccc12)NC(=O)[C@@H](CCCN)NC(=O)CNC(=O)[C@H](CCCN)NC(=O)[C@@H](CCCN)NC(=O)[C@@H](Cc1c[nH]c2ccccc12)NC(=O)[C@@H](Cc1ccc(O)cc1)NC(=O)[C@@H](CO)NC(=O)CCCCCC(C)C)C(=O)N[C@@H](CC(N)=O)C(=O)NCC(=O)NCC(N)=O [LL(Met9)-NH2 (44)] ({Octanoyl(7-Me)}-[dS][dY][dW][dOrn][Orn]G[dOrn]WMINGG-NH2) | 4 µg/mL | 4 µg/mL | 4 µg/mL | 4 µg/mL | 4 µg/mL | >32 µg/mL | 4 µg/mL (≈ 2.42 µM)
CC[C@H](C)[C@H](NC(=O)[C@@H](NC(=O)[C@H](Cc1c[nH]c2ccccc12)NC(=O)[C@@H](CCCN)NC(=O)[C@H](C)NC(=O)[C@H](CCCN)NC(=O)[C@@H](CCCN)NC(=O)[C@@H](Cc1c[nH]c2ccccc12)NC(=O)[C@@H](Cc1ccc(O)cc1)NC(=O)[C@@H](CO)NC(=O)CCCCCC(C)C)[C@@H](C)O)C(=O)N[C@@H](CC(N)=O)C(=O)NCC(=O)NCC(N)=O [LL(Ala6)-NH2 (34)] ({Octanoyl(7-Me)}-[dS][dY][dW][dOrn][Orn]A[dOrn]WTINGG-NH2) | 8 µg/mL | 4 to 8 µg/mL | 8 µg/mL | 16 µg/mL | 16 µg/mL | >32 µg/mL | 4 to 8 µg/mL
CC[C@H](C)[C@H](NC(=O)[C@H](Cc1c[nH]c2ccccc12)NC(=O)[C@H](Cc1c[nH]c2ccccc12)NC(=O)[C@@H](CCCN)NC(=O)CNC(=O)[C@H](CCCN)NC(=O)[C@@H](CCCN)NC(=O)[C@@H](Cc1c[nH]c2ccccc12)NC(=O)[C@@H](Cc1ccc(O)cc1)NC(=O)[C@@H](CO)NC(=O)CCCCCC(C)C)C(=O)N[C@@H](CC(N)=O)C(=O)NCC(=O)NCC(N)=O [LL(Trp9)-NH2 (45)] ({Octanoyl(7-Me)}-[dS][dY][dW][dOrn][Orn]G[dOrn]WWINGG-NH2) | 4 µg/mL | 4 µg/mL | 4 µg/mL | 4 µg/mL | 16 µg/mL | >32 µg/mL | 4 µg/mL (≈ 2.34 µM)
CCC(C)CCC(=O)N[C@H](CC(N)=O)C(=O)N[C@H](Cc1ccc(O)cc1)C(=O)N[C@H](Cc1c[nH]c2ccccc12)C(=O)N[C@H](CCCN)C(=O)N[C@@H](CCCN)C(=O)NCC(=O)N[C@H](CCCN)C(=O)N[C@@H](Cc1c[nH]c2ccccc12)C(=O)N[C@@H](CN)C(=O)N[C@H](C(=O)NCC(N)=O)[C@@H](C)CC (some centres unmarked) [Δ12LB (Dap9)-NH2 (64)] ({Hexanoyl(4ξ-Me)}-[dN][dY][dW][dOrn][Orn]G[dOrn]W[Dap]IG-NH2) | 8 µg/mL | 8 µg/mL | >32 µg/mL | 16 µg/mL | 4 µg/mL | >32 µg/mL | >32 µg/mL
C=CCOC(=O)CC[C@H](NC(=O)[C@H](Cc1c[nH]c2ccccc12)NC(=O)[C@@H](CCCN)NC(=O)CNC(=O)[C@H](CCCN)NC(=O)[C@@H](CCCN)NC(=O)[C@@H](Cc1c[nH]c2ccccc12)NC(=O)[C@@H](Cc1ccc(O)cc1)NC(=O)[C@@H](CC(N)=O)NC(=O)CCC(C)CC)C(=O)N[C@H](C(=O)NCC(N)=O)[C@@H](C)CC (some centres unmarked) [Δ12LB (Glu[OAll]9)-NH2 (62)] ({Hexanoyl(4ξ-Me)}-[dN][dY][dW][dOrn][Orn]G[dOrn]WE(OAll)IG-NH2) | 8 µg/mL | 4 µg/mL | 4 µg/mL | 8 µg/mL | 2 µg/mL | >32 µg/mL | 4 µg/mL (≈ 2.64 µM)
